Tested on: HepG-2 cells
Assay: mRNA sequencing, differential expression genes
Assay type: cell-based, human
Method: After culturing HepG-2 cells in DMEM medium with HG for 72 hours followed by treating with 20 μM CA for 0, 3, 6, 12, and 24 hours, genomic DNA from 5×10^7 cells were extracted using QIAamp® DNA Mini Kit (QIAGEN, Hilden, Germany). Each sample, 6 μg, was sent to CD Genomics Co., Ltd (New York, USA) for analysis of WGBS. Total RNA was isolated using the Promega SV total RNA isolation system (Madison, WI, USA) with DNase treatment. Each sample, 2 μg, were sent to CD Genomics Co., Ltd (New York, USA) for analysis of RNA sequencing. The same samples, 2 μg, was used for the first-strand cDNA synthesis as recommended by the manufacturer (Invitrogen, Carlsbad, CA). RT-qPCR was performed using SYBR Green as the indicator on ABI 7500 Fast Real-Time PCR System (Applied Biosystems, Foster City, CA). Amplifications of j-actin or GAPDH were used as internal controls. Relative messenger RNA (mRNA) expression was quantified with the comparative cycle threshold (Ct) method using a sutiable primer set and was expressed as 2-ΔΔCt as described previously.
Total RNA was extracted and purified from HepG-2 cells using SV total RNA isolation system (Promega, Madison, WI). Messenger RNA was purified from total RNA using poly-T oligo-attached magnetic beads. After fragmentation, the first strand cDNA was synthesized using random hexamer primers, followed by the second strand cDNA synthesis using either dUTP for directional library or dTTP for non-directional library. The library was checked with Qubit and real-time PCR for quantification and bioanalyzer for size distribution detection. Quantified libraries will be pooled and sequenced on Illumina® platforms, according to effective library concentration and data amount. Raw data (raw reads) of fastq format were first processed through in-house perl scripts. In this step, clean data (clean reads) were obtained by removing reads containing adapter, reads containing ploy-N and low-quality reads from raw data. At the same time, Q20, Q30 and GC content of the clean data were calculated. All the downstream analyses were based on clean data with high quality. The clean data were aligned to reference genome (GRCh37) using Hisat2 v2.0.5 software. Differential expression genes (DEGs) were performed using the DESeq2 R package (1.20.0). DAVID software (website located at david.ncifcrf.gov/) was used to test the statistical enrichment of DMR related genes in the GO and KEGG pathways.

CC(CCC[C@@H](C)[C@H]1CC[C@H]2[C@@H]3CC=C4C[C@@H](O)CC[C@]4(C)[C@H]3CC[C@]12C)C(=O)O (stereo partly drawn) [CA, 3β-hydroxy-5-cholestenoic acid]
Fold Change ABCF1 (down regulated gene) (20 μM CA, 6 hours): −1.35 fold
Fold Change ACTA1 (up regulated gene) (20 μM CA, 6 hours): 1.32 fold
Fold Change ACTN4 (up regulated gene) (20 μM CA, 6 hours): 3.26 fold
Fold Change ANGPTL8 (down regulated gene) (20 μM CA, 6 hours): −1.77 fold
Fold Change ARHGAP17 (up regulated gene) (20 μM CA, 6 hours): 2.50 fold
Fold Change ATG16L1 (down regulated gene) (20 μM CA, 6 hours): −1.32 fold
Fold Change C2 (down regulated gene) (20 μM CA, 6 hours): −1.14 fold
Fold Change C5orf51 (down regulated gene) (20 μM CA, 6 hours): −1.06 fold
Fold Change CD99 (up regulated gene) (20 μM CA, 6 hours): 3.60 fold
Fold Change COG5 (down regulated gene) (20 μM CA, 6 hours): −1.44 fold
Fold Change CPSF1 (down regulated gene) (20 μM CA, 6 hours): −4.45 fold
Fold Change CUTA (up regulated gene) (20 μM CA, 6 hours): 1.76 fold
Fold Change CYP1A1 (up regulated gene) (20 μM CA, 6 hours): 1.97 fold
Fold Change CYP51A1 (down regulated gene) (20 μM CA, 6 hours): −1.25 fold
Fold Change DCAF11 (down regulated gene) (20 μM CA, 6 hours): −1.74 fold
Fold Change DLG5 (up regulated gene) (20 μM CA, 6 hours): 1.44 fold
Fold Change DNHD1 (down regulated gene) (20 μM CA, 6 hours): −1.21 fold
Fold Change EEF1A1P13 (up regulated gene) (20 μM CA, 6 hours): 2.82 fold
Fold Change EEF1B2 (up regulated gene) (20 μM CA, 6 hours): 1.29 fold
Fold Change EHMT2 (up regulated gene) (20 μM CA, 6 hours): 1.16 fold
Fold Change FBL (down regulated gene) (20 μM CA, 6 hours): −1.87 fold
Fold Change FDFT1 (down regulated gene) (20 μM CA, 6 hours): −1.30 fold
Fold Change FLII (up regulated gene) (20 μM CA, 6 hours): 2.04 fold
Fold Change FST (up regulated gene) (20 μM CA, 6 hours): 1.25 fold
Fold Change FZD1 (up regulated gene) (20 μM CA, 6 hours): 1.06 fold
Fold Change GBA (up regulated gene) (20 μM CA, 6 hours): 2.25 fold
Fold Change GBP1 (up regulated gene) (20 μM CA, 6 hours): 1.37 fold
Fold Change GFUS (down regulated gene) (20 μM CA, 6 hours): −2.73 fold
Fold Change GMPR2 (up regulated gene) (20 μM CA, 6 hours): 3.88 fold
Fold Change GNL1 (up regulated gene) (20 μM CA, 6 hours): 1.59 fold
Fold Change GTF2H1 (up regulated gene) (20 μM CA, 6 hours): 1.85 fold
Fold Change GTPBP6 (down regulated gene) (20 μM CA, 6 hours): −2.08 fold
Fold Change HMGCR (down regulated gene) (20 μM CA, 6 hours): −1.55 fold
Fold Change HMGCS1 (down regulated gene) (20 μM CA, 6 hours): −2.12 fold
Fold Change HSD17B7 (down regulated gene) (20 μM CA, 6 hours): −1.05 fold
Fold Change HSPA1A (up regulated gene) (20 μM CA, 6 hours): 1.22 fold
Fold Change HSPA1B (up regulated gene) (20 μM CA, 6 hours): 1.16 fold
Fold Change IBTK (down regulated gene) (20 μM CA, 6 hours): −2.44 fold
Fold Change ID3 (down regulated gene) (20 μM CA, 6 hours): −2.65 fold
Fold Change IDI1 (down regulated gene) (20 μM CA, 6 hours): −1.86 fold
Fold Change INPP5K (up regulated gene) (20 μM CA, 6 hours): 1.04 fold
Fold Change IPO4 (down regulated gene) (20 μM CA, 6 hours): −1.51 fold
Fold Change IRF9 (up regulated gene) (20 μM CA, 6 hours): 1.42 fold
Fold Change LDLR (down regulated gene) (20 μM CA, 6 hours): −1.46 fold
Fold Change LFNG (up regulated gene) (20 μM CA, 6 hours): 1.02 fold
Fold Change LINC02119 (down regulated gene) (20 μM CA, 6 hours): −1.39 fold
Fold Change LOC729973 (down regulated gene) (20 μM CA, 6 hours): −1.08 fold
Fold Change LOC107985276 (down regulated gene) (20 μM CA, 6 hours): −1.32 fold
Fold Change LOC112268009 (up regulated gene) (20 μM CA, 6 hours): 1.19 fold
Fold Change LPCAT1 (down regulated gene) (20 μM CA, 6 hours): −1.43 fold
Fold Change MCRIP1 (up regulated gene) (20 μM CA, 6 hours): 2.17 fold
Fold Change MINCR (up regulated gene) (20 μM CA, 6 hours): 1.24 fold
Fold Change MSMO1 (down regulated gene) (20 μM CA, 6 hours): −2.30 fold
Fold Change MT1E (up regulated gene) (20 μM CA, 6 hours): 1.81 fold
Fold Change MT1F (up regulated gene) (20 μM CA, 6 hours): 2.51 fold
Fold Change MT1G (up regulated gene) (20 μM CA, 6 hours): 2.43 fold
Fold Change MT1X (up regulated gene) (20 μM CA, 6 hours): 2.15 fold
Fold Change MT2A (up regulated gene) (20 μM CA, 6 hours): 1.44 fold
Fold Change MTCH2 (down regulated gene) (20 μM CA, 6 hours): −2.50 fold
Fold Change MTMR11 (up regulated gene) (20 μM CA, 6 hours): 1.48 fold
Fold Change MVD (down regulated gene) (20 μM CA, 6 hours): −1.20 fold
Fold Change MVK (down regulated gene) (20 μM CA, 6 hours): −1.57 fold
Fold Change MYEOV (down regulated gene) (20 μM CA, 6 hours): −1.08 fold
Fold Change NDUFS1 (up regulated gene) (20 μM CA, 6 hours): 1.45 fold
Fold Change NEK10 (up regulated gene) (20 μM CA, 6 hours): 1.06 fold
Fold Change NEU4 (down regulated gene) (20 μM CA, 6 hours): −1.99 fold
Fold Change NOP9 (down regulated gene) (20 μM CA, 6 hours): −2.89 fold
Fold Change NPIPA2 (up regulated gene) (20 μM CA, 6 hours): 1.32 fold
Fold Change NUP160 (down regulated gene) (20 μM CA, 6 hours): −1.36 fold
Fold Change PAK1 (down regulated gene) (20 μM CA, 6 hours): −1.14 fold
Fold Change PAK1IP1 (down regulated gene) (20 μM CA, 6 hours): −3.71 fold
Fold Change PALLD (up regulated gene) (20 μM CA, 6 hours): 1.02 fold
Fold Change PCSK9 (down regulated gene) (20 μM CA, 6 hours): −1.08 fold
Fold Change PFKFB4 (down regulated gene) (20 μM CA, 6 hours): −1.30 fold
Fold Change PHF1 (up regulated gene) (20 μM CA, 6 hours): 1.42 fold
Fold Change PNPLA3 (down regulated gene) (20 μM CA, 6 hours): −1.42 fold
Fold Change POLR3E (down regulated gene) (20 μM CA, 6 hours): −1.12 fold
Fold Change PRPF31 (up regulated gene) (20 μM CA, 6 hours): 1.38 fold
Fold Change PRSS8 (down regulated gene) (20 μM CA, 6 hours): −1.46 fold
Fold Change PSMB3 (down regulated gene) (20 μM CA, 6 hours): −4.67 fold
Fold Change PSME2 (up regulated gene) (20 μM CA, 6 hours): 2.33 fold
Fold Change PTEN (down regulated gene) (20 μM CA, 6 hours): −1.64 fold
Fold Change PTGDR2 (up regulated gene) (20 μM CA, 6 hours): 1.58 fold
Fold Change PUF60 (down regulated gene) (20 μM CA, 6 hours): −2.01 fold
Fold Change RBFOX2 (down regulated gene) (20 μM CA, 6 hours): −1.14 fold
Fold Change RCBTB2 (up regulated gene) (20 μM CA, 6 hours): 1.18 fold
Fold Change RDH11 (down regulated gene) (20 μM CA, 6 hours): −1.06 fold
Fold Change RN7SK (down regulated gene) (20 μM CA, 6 hours): −1.58 fold
Fold Change RNF187 (up regulated gene) (20 μM CA, 6 hours): 1.25 fold
Fold Change RPS9 (down regulated gene) (20 μM CA, 6 hours): −1.14 fold
Fold Change RPS14P1 (up regulated gene) (20 μM CA, 6 hours): 1.50 fold
Fold Change RPS17 (up regulated gene) (20 μM CA, 6 hours): 3.79 fold
Fold Change RRN3 (down regulated gene) (20 μM CA, 6 hours): −1.05 fold
Fold Change RUSC1-AS1 (down regulated gene) (20 μM CA, 6 hours): −1.37 fold
Fold Change SBNO2 (up regulated gene) (20 μM CA, 6 hours): 1.13 fold
Fold Change SERTAD1 (up regulated gene) (20 μM CA, 6 hours): 1.06 fold
Fold Change SGK1 (up regulated gene) (20 μM CA, 6 hours): 1.03 fold
Fold Change SLC39A7 (up regulated gene) (20 μM CA, 6 hours): 2.59 fold
Fold Change SLC39A10 (down regulated gene) (20 μM CA, 6 hours): −1.10 fold
Fold Change SNHG32 (down regulated gene) (20 μM CA, 6 hours): −1.62 fold
Fold Change SPC25 (down regulated gene) (20 μM CA, 6 hours): −1.51 fold
Fold Change SPSB2 (up regulated gene) (20 μM CA, 6 hours): 1.18 fold
Fold Change SQLE (down regulated gene) (20 μM CA, 6 hours): −1.73 fold
Fold Change SQSTM1 (down regulated gene) (20 μM CA, 6 hours): −1.29 fold
Fold Change STARD4 (down regulated gene) (20 μM CA, 6 hours): −1.26 fold
Fold Change STAT5A (up regulated gene) (20 μM CA, 6 hours): 1.09 fold
Fold Change SYBU (up regulated gene) (20 μM CA, 6 hours): 1.09 fold
Fold Change SYNPO (up regulated gene) (20 μM CA, 6 hours): 1.14 fold
Fold Change TBCE (down regulated gene) (20 μM CA, 6 hours): −1.67 fold
Fold Change TINF2 (down regulated gene) (20 μM CA, 6 hours): −1.58 fold
Fold Change TJP1 (up regulated gene) (20 μM CA, 6 hours): 1.02 fold
Fold Change TPM1-AS (up regulated gene) (20 μM CA, 6 hours): 1.08 fold
Fold Change TRNH (down regulated gene) (20 μM CA, 6 hours): −1.08 fold
Fold Change U2AF1 (up regulated gene) (20 μM CA, 6 hours): 1.40 fold
Fold Change UGT2A3 (up regulated gene) (20 μM CA, 6 hours): 1.83 fold
Fold Change VARS1 (up regulated gene) (20 μM CA, 6 hours): 3.03 fold
Fold Change VPS11 (up regulated gene) (20 μM CA, 6 hours): 1.96 fold
Fold Change YWHAE (down regulated gene) (20 μM CA, 6 hours): −1.84 fold
number of DEGs regulated by CA, total (3 hours post treatment): 109
number of DEGs, down-regulated (3 hours post treatment): 50
number of DEGs, up-regulated (3 hours post treatment): 59
number of DEGs regulated by CA, total (6 hours): 120
number of DEGs, down-regulated (6 hours): 61
number of DEGs, up-regulated (6 hours): 59
number of DEGs regulated by CA, total (12 hours): 164
number of DEGs, down-regulated (12 hours): 80
number of DEGs, up-regulated (12 hours): 84
number of DEGs regulated by CA, total (24 hours): 245
number of DEGs, down-regulated (24 hours): 112
number of DEGs, up-regulated (24 hours): 133
